Results: US20250011322A1, “MEDICAL COMPOUND FOR THE INHIBITION OF ALDEHYDE DEHYDROGENASE SUBTYPE 1A” (Theranib Inc., priority 2023, published 2025)
Entries after “also recorded” stand apart in the source; their conditions may differ.

Tests used:
ALDH1A3 = molecular target: T1, ALDH1A3 (Homo sapiens, UniProt P47895); test: Aldefluor test in MDA-MB-231 cells overexpressing ALDH1A3; format: cell-based; settings: for IC50: Aldefluor test; for Inhibition of ALDH1A3-induced Aldefluor activity: dilution series of compound
T1 construct: expressed in transfected cells; host or cells: MDA-MB-231
T1 sequence (P47895 1-512): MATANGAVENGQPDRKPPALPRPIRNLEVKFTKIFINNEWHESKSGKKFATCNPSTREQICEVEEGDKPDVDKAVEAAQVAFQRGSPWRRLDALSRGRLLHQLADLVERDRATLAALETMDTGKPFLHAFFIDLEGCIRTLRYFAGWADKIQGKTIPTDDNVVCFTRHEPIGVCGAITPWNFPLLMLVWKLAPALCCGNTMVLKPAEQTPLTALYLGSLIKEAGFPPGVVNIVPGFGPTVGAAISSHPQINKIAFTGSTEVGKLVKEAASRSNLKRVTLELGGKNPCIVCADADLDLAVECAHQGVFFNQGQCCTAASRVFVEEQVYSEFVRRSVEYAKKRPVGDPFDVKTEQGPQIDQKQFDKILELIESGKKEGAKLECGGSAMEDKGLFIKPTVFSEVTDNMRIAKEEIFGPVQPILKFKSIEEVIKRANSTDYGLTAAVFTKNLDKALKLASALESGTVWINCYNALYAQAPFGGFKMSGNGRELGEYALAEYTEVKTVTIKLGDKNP
Protocol: (§1) In vitro assays were conducted on breast cancer cell lines MDA-MB-231, MDA-MB-468, and HCC1806 cells. Specifically, the MDA-MB-231 cell line, characterized by a low expression of ALDH1A, was used as such or after being engineered to overexpress the ALDH1A1 or ALDH1A3 isoform, while the MDA-MB-468 and HCC1806 cell lines, characterized by a high expression of ALDH1A3 were used as such or after being knocked down for the ALDH1A3 isoform (FIG. 1). […] The experiments were conducted using the Aldefluor® test, specific for aldehyde dehydrogenases.

ALDH1A1 = molecular target: T2, ALDH1A1 (Homo sapiens, UniProt P00352); test: Aldefluor test in MDA-MB-231 cells overexpressing ALDH1A1; format: cell-based
T2 construct: expressed in transfected cells; host or cells: MDA-MB-231
T2 sequence (P00352 1-501): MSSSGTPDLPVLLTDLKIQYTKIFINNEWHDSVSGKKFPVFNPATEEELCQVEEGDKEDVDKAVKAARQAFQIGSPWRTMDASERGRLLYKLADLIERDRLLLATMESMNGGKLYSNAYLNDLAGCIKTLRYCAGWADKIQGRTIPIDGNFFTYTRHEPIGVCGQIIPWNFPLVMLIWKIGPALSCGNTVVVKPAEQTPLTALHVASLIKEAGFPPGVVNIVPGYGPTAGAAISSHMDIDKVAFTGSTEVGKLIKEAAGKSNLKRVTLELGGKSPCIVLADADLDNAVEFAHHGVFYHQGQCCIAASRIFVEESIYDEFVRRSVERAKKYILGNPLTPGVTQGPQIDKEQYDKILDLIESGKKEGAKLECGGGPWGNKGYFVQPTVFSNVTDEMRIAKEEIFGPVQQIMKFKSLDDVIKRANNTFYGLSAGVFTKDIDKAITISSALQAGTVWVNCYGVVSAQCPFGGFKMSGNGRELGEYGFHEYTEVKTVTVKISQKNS
Protocol: as §1

[1] = Toxicity readouts in the xenograft study: body weight, serum ALT, serum creatinine; format: in vivo, mice
Protocol: (§2) In vivo experimentation then ensued. The in vivo assays were conducted using eight-week-old female NOD/SCID mice orthotopically injected with 2×10^6 native or ALDH1A3-overexpressing MDA-MB-231 cells. 60 female NOD-SCID mice had approximately 2,000,000 MDA-MB-231 cells injected into a 5th mammary fat pad. 30 mice were injected with MDA-MB-231 bearing a vector control (Groups 1-3), and 30 mice were injected with MDA-MB-231 bearing an ALDH1A3 overexpression vector (Groups 4-6). On day 15 of inoculation, the treatment phase began. Groups 1 and 4 (n=10, 10 respectively) received saline i.p. injections 100 uL every day for 26 days. Groups 2 and 5 (n=10, 10) received 0.4 mg/kg drug i.p. in 100 uL saline every day for 26 days. Groups 3 and 6 (n=10, 10) received 4.0 mg/kg drug i.p. in 100 uL saline every day for 26 days. Caliper measurements of tumors and body weights were taken throughout the treatment phase. After 26 days, all mice were euthanized, the tumors were harvested, and blood was drawn for analysis.
This is evidenced by the trend over time of their body weight (FIG. 7) and also the analysis of alanine aminotransferase (ALT) and creatinine levels in serum collected from terminal animals (FIGS. 12A and 12B).

MDA-MB-231 tumors = test: Orthotopic MDA-MB-231 xenograft (native or ALDH1A3-overexpressing) in NOD/SCID mice; format: in vivo; settings: for RARB level in tumors (pharmacodynamic analysis): ALDH1A3-overexpressing MDA-MB-231 tumors harvested day 41, treatment from day 15
Protocol: as §2
On day 15, the animals were treated with compound 1, administered daily intraperitoneally at a concentration of 0.4 mg/Kg or 4 mg/Kg, then constantly monitored for body weight increase (FIG. 7) and tumor volume (FIG. 8). Once the tumors became palpable, we started treatment of the animals (day 15). After 26 days of treatment, the animals were sacrificed and the tumors were collected and evaluated for size (FIGS. 8 and 9) and weight (FIG. 10).

[2] = system: ALDH1A3 target genes (RARB, DHRS3, ELF3, RARRES1); test: Expression of ALDH1A3 target genes in breast cancer cell lines by QPCR; format: cell-based; settings: 24 hours of treatment; for Expression of ALDH1A3 target genes in ALDH1A3-expressing lines: ALDH1A3-overexpressing MDA-MB-231, MDA-MB-468 and HCC1806 cells; for Expression of ALDH1A3 target genes in native line: native MDA-MB-231 cells
Protocol: FIGS. 5A, 5B, 5C. […] Expression of DHRS3, RARB, ELF3, and RARRES1 in MDA-MB-231 cells with ALDH1A3 overexpression (FIG. 5A), MDA-MB-468 cells (with ALDH1A3 shRNA knockdown as control, FIG. 5B), and HCC1806 (with ALDH1A3 shRNA knockdown as control, FIG. 5C) is determined 24 hours after treatment with 0, 1, 10, or 100 nM compound 1 by QPCR. Significance determined by one-way Anova, p-value […], <0.01=**, <0.001=***, <0.0001=****.
Subsequently, to confirm the direct inhibitory activity of the tested compounds on the enzymatic isoform of interest, their effect on the expression of ALDH1A3 target genes, and in particular of RARB, DHRS3, ELF3, and RARRES1, was investigated in the aforementioned cell lines.

[3] = MDA-MB-231 cells overexpressing ALDH1A3
[4] = MDA-MB-231 cells with ALDH1A3 overexpression
[5] = daily treatment from day 15, measured on day 41, mice

Row | SMILES | IC50 (ALDH1A3; [3]) [nM] | Inhibition of ALDH1A3-induced Aldefluor activity (ALDH1A3; [4]) | Inhibition of Aldefluor assay activity of ALDH1A1 (ALDH1A1; 100 uM) | Inhibition of Aldefluor activity induced by ALDH1A1 overexpression (ALDH1A1; all plotted concentrations) | Toxicity (overall) ([1]; daily i.p. 0.4 or 4 mg/Kg for 26 days, mice) | Serum alanine aminotransferase (ALT) [1, 5] | Serum creatinine [1, 5] | Body weight ([1]; mice injected with MDA-MB-231 cells, treatment from day 15) | Tumor growth (volume, weight) induced by ALDH1A3 (MDA-MB-231 tumors; 0.4 or 4 mg/Kg i.p. daily for 26 days from day 15, NOD/SCID mice) | RARB level in tumors (pharmacodynamic analysis) (MDA-MB-231 tumors) | RARB level in tumors (pharmacodynamic analysis) (MDA-MB-231 tumors; listed as compound 1) | Expression of ALDH1A3 target genes in ALDH1A3-expressing lines [2] | Expression of ALDH1A3 target genes in native line [2] | Inhibition of Aldefluor assay activity of ALDH1A3 (ALDH1A3; 100 uM, MDA-MB-231 cells overexpressing ALDH1A3) | Amounts distinguishable from control counts in the plot of Aldefluor count (ALDH1A3; MDA-MB-231 cells with ALDH1A3 overexpression, all other concentrations not distinguishable from control) [µM]
1 | CC(=O)c1ccc(-c2cc(-c3ccc(C(C)=O)cc3)c3nc(-c4ccccc4)cn3c2)cc1 [Compound 1, 1,1′-((2-phenylimidazo[1,2-a]pyridine-6,8-diyl)bis(4,1-phenylene))bis(ethan-1-one)] | 1.9 | inhibits Aldefluor activity | did not inhibit | does not inhibit Aldefluor activity | no detectable toxicity | does not affect | does not affect | No significant changes were observed | reduce, in a statistically significant way, the increased tumor growth | reduces ALDH1A3-inducible RARB expression | significantly reduced RARB level | statistically significantly reduced the expression of the target genes; also recorded: specifically inhibit the expression of ALDH1A3 target genes | neither compound 1 nor compound 2 produced significant results |  | 
2 | CC(=O)c1ccc(-c2cc(-c3ccc(C#N)cc3)cn3cc(-c4ccccc4)nc23)cc1 [Compound 2, 4-(8-(4-acetylphenyl)-2-phenylimidazo[1,2-a]pyridin-6-yl)benzonitrile] | 9.4 | inhibits Aldefluor activity |  |  |  |  |  |  |  |  |  | statistically significantly reduced the expression of the target genes | neither compound 1 nor compound 2 produced significant results |  | 
3 | CCN(CC)c1ccc(C=O)cc1 [DEAB, 4-Diethylaminobenzaldehyde, reference compound] |  |  |  |  |  |  |  |  |  |  |  |  |  | inhibits | 
4 | c1ccc(-c2ccc3nc(-c4ccccc4)cn3c2)cc1 [GA11, reference compound] | ~100000 | inhibit |  |  |  |  |  |  |  |  |  |  |  |  | 100
